From ChEMBL document CHEMBL1155729, “Hydrachine A, a novel alkaloid from the roots of Hydrangea chinensis” (J Nat Prod, 2001) come the findings set out here.

Activity calls are given as the source filed them. No cut-off for these calls is given here.

Experiment [1] relates to HONE1. The experiment is described as follows: Cytotoxicity against human HONE1 cells. Type of experiment: functional, cell-based.
The test system of experiment [2] is NUGC. The experiment is described as follows: Cytotoxicity against human NUGC cells. It is filed as functional, cell-based.

Turning to `O=C(C[C@@H]1NCCC[C@H]1O)Cn1cnc2ccccc2c1=O`, the outcome in experiment [1] and in experiment [2] was inactive.

On to `CC1(C)[C@@H](n2cnc3ccccc3c2=O)C(=O)C[C@@H]2[C@@H](O)CCCN21`, for which the outcome in experiment [1] and in experiment [2] was inactive.

Turning to `O=C1C[C@@H]2[C@@H](O)CCCN2[C@H](n2cnc3ccccc3c2=O)C1`, the outcome in experiment [1] and in experiment [2] was inactive.
